{"source": "patent US6914045B2", "about": "“Glycopeptide antibiotics” (Wyeth Holdings Corporation, priority 2001, dated 2005)", "assay_in_all_cases": "in vitro antibacterial evaluation, MIC by broth dilution", "type_in_all_cases": "cell-based", "key": {"Streptococcus sp.": {"tested_on": "Streptococcus sp.", "details": "broth dilution, 18 hours at 35° C.", "method_in_brief": "(§1)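 MIC = lowest antibiotic concentration preventing visible growth; inoculum 5×10^5 CFU/mL; drug range 64-0.06 μg/mL; Muller-Hinton II […]; NCCLS M7-A2 guidance.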"}, "Enterococcus sp.": {"tested_on": "Enterococcus sp.", "details": "broth dilution, 18 hours at 35° C.", "method_in_brief": "as §1"}, "Staphylococcus sp.": {"tested_on": "Staphylococcus sp.", "details": "broth dilution, 18 hours at 35° C.", "method_in_brief": "as §1"}, "Escherichia coli": {"tested_on": "Escherichia coli", "details": "18 hours at 35° C.", "method_in_brief": "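Step 1: dilute antibiotic across 64-0.06 μg/mL in Muller-Hinton II […]. Step 2: inoculate at 5×10^5 CFU/mL.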"}}, "data": [{"smiles": "CC(C)CC(=O)OC1C(OC2C(CO)OC(Oc3ccc(CC4NC(=O)C(C(C)c5cccs5)NC(=O)CNC(=O)C(CO)NC(=O)C(C(O)C5CNC(=N)N5C5OC(CO)C(O)C(O)C5O)NC(=O)C(C(O)C5CNC(=N)N5)NC4=O)cc3)C(O)C2O)OC(CO)C(O)C1O", "note": "(stereo not drawn) [Example 265a, Cyclo[3-(2-thienyl)-2-aminobutanoyl-O-[4-O-[2-O-(3-methylbutanoyl)hexopyranosyl]hexopyranosyl]tyrosyl-3-(2-iminoimidazolidin-4-yl)seryl-3-(3-hexopyranosyl-2-iminoimidazolidin-4-yl)serylserylglycyl]]", "values": [{"measurement": "MIC Streptococcus agalactiae (GC 4564)", "setting": "Streptococcus sp.; strain GC 4564", "value": 4, "unit": "µg/mL"}, {"measurement": "MIC Streptococcus pyogenes (ID-3187)", "setting": "Streptococcus sp.; strain ID-3187", "value": 4, "unit": "µg/mL"}, {"measurement": "MIC Enterococcus avium (GC 4558)", "setting": "Enterococcus sp.; Enterococcus avium (GC 4558)", "value": 64, "unit": "µg/mL"}, {"measurement": "MIC Enterococcus faecalis (ATCC 29212)", "setting": "Enterococcus sp.; Enterococcus faecalis (ATCC 29212)", "value": 64, "unit": "µg/mL"}, {"measurement": "MIC Enterococcus faecalis (GC 4553)", "setting": "Enterococcus sp.; Enterococcus faecalis (GC 4553)", "value": ">64", "unit": "µg/mL"}, {"measurement": "MIC Enterococcus faecalis (GC 4554)", "setting": "Enterococcus sp.; Enterococcus faecalis (GC 4554)", "value": ">64", "unit": "µg/mL"}, {"measurement": "MIC Enterococcus faecium (GC 2243)", "setting": "Enterococcus sp.; Enterococcus faecium (GC 2243)", "value": ">64", "unit": "µg/mL"}, {"measurement": "MIC Enterococcus faecium (GC 4556)", "setting": "Enterococcus sp.; Enterococcus faecium (GC 4556)", "value": 64, "unit": "µg/mL"}, {"measurement": "MIC Enterococcus faecium (GC 4557)", "setting": "Enterococcus sp.; Enterococcus faecium (GC 4557)", "value": 8, "unit": "µg/mL"}, {"measurement": "MIC Enterococcus faecalis (ATCC 29212)", "setting": "Enterococcus sp.; strain ATCC 29212", "value": 64, "unit": "µg/mL"}, {"measurement": "MIC Enterococcus faecalis (GC 2242)", "setting": "Enterococcus sp.; strain GC 2242", "value": 64, "unit": "µg/mL"}, {"measurement": "MIC Enterococcus faecium (GC 2243)", "setting": "Enterococcus sp.; strain GC 2243", "value": ">64", "unit": "µg/mL"}, {"measurement": "MIC Enterococcus faecalis (GC 4552)", "setting": "Enterococcus sp.; strain GC 4552", "value": ">64", "unit": "µg/mL"}, {"measurement": "MIC Enterococcus faecalis (GC 4553)", "setting": "Enterococcus sp.; strain GC 4553", "value": ">64", "unit": "µg/mL"}, {"measurement": "MIC Enterococcus faecalis (GC 4554)", "setting": "Enterococcus sp.; strain GC 4554", "value": ">64", "unit": "µg/mL"}, {"measurement": "MIC Enterococcus faecium (GC 4556)", "setting": "Enterococcus sp.; strain GC 4556", "value": 64, "unit": "µg/mL"}, {"measurement": "MIC Enterococcus faecium (GC 4557)", "setting": "Enterococcus sp.; strain GC 4557", "value": 8, "unit": "µg/mL"}, {"measurement": "MIC Enterococcus avium (GC 4558)", "setting": "Enterococcus sp.; strain GC 4558", "value": 64, "unit": "µg/mL"}, {"measurement": "MIC Coagulase Negative Staphylococcus (GC 4547)", "setting": "Staphylococcus sp.", "value": 8, "unit": "µg/mL"}, {"measurement": "MIC Coagulase Negative Staphylococcus (GC 4548)", "setting": "Staphylococcus sp.", "value": 8, "unit": "µg/mL"}, {"measurement": "MIC Coagulase Negative Staphylococcus (GC 4549)", "setting": "Staphylococcus sp.", "value": 4, "unit": "µg/mL"}, {"measurement": "MIC Coagulase Negative Staphylococcus (GC 4551)", "setting": "Staphylococcus sp.", "value": 8, "unit": "µg/mL"}, {"measurement": "MIC Staphylococcus aureus (ATCC 29213)", "setting": "Staphylococcus sp.", "value": 16, "unit": "µg/mL"}, {"measurement": "MIC Staphylococcus aureus (GC 1131)", "setting": "Staphylococcus sp.", "value": 32, "unit": "µg/mL"}, {"measurement": "MIC Staphylococcus aureus (GC 4541)", "setting": "Staphylococcus sp.", "value": 16, "unit": "µg/mL"}, {"measurement": "MIC Staphylococcus aureus (GC 4542)", "setting": "Staphylococcus sp.", "value": 16, "unit": "µg/mL"}, {"measurement": "MIC Staphylococcus aureus (GC 4544)", "setting": "Staphylococcus sp.", "value": 8, "unit": "µg/mL"}, {"measurement": "MIC Staphylococcus aureus (GC 4545)", "setting": "Staphylococcus sp.", "value": 16, "unit": "µg/mL"}, {"measurement": "MIC Staphylococcus aureus-SMITH (GC 4543)", "setting": "Staphylococcus sp.", "value": 8, "unit": "µg/mL"}, {"measurement": "MIC Staphylococcus haemolyticus (GC 4546)", "setting": "Staphylococcus sp.", "value": 8, "unit": "µg/mL"}, {"measurement": "MIC Staphylococcus aureus (ATCC 29213)", "setting": "Staphylococcus sp.; strain ATCC 29213", "value": 16, "unit": "µg/mL"}, {"measurement": "MIC Staphylococcus aureus (GC 1131)", "setting": "Staphylococcus sp.; strain GC 1131", "value": 32, "unit": "µg/mL"}, {"measurement": "MIC Staphylococcus aureus (GC 4541)", "setting": "Staphylococcus sp.; strain GC 4541", "value": 16, "unit": "µg/mL"}, {"measurement": "MIC Staphylococcus aureus (GC 4542)", "setting": "Staphylococcus sp.; strain GC 4542", "value": 16, "unit": "µg/mL"}, {"measurement": "MIC Staphylococcus aureus (GC 4544)", "setting": "Staphylococcus sp.; strain GC 4544", "value": 8, "unit": "µg/mL"}, {"measurement": "MIC Staphylococcus aureus (GC 4545)", "setting": "Staphylococcus sp.; strain GC 4545", "value": 16, "unit": "µg/mL"}, {"measurement": "MIC Staphylococcus haemolyticus (GC 4546)", "setting": "Staphylococcus sp.; strain GC 4546", "value": 8, "unit": "µg/mL"}, {"measurement": "MIC Coagulase Negative Staphylococcus (GC 4547)", "setting": "Staphylococcus sp.; strain GC 4547", "value": 8, "unit": "µg/mL"}, {"measurement": "MIC Coagulase Negative Staphylococcus (GC 4548)", "setting": "Staphylococcus sp.; strain GC 4548", "value": 8, "unit": "µg/mL"}, {"measurement": "MIC Coagulase Negative Staphylococcus (GC 4549)", "setting": "Staphylococcus sp.; strain GC 4549", "value": 4, "unit": "µg/mL"}, {"measurement": "MIC Coagulase Negative Staphylococcus (GC 4551)", "setting": "Staphylococcus sp.; strain GC 4551", "value": 8, "unit": "µg/mL"}, {"measurement": "MIC Staphylococcus aureus-SMITH (GC 4543)", "setting": "Staphylococcus sp.; strain SMITH GC 4543", "value": 8, "unit": "µg/mL"}, {"measurement": "MIC Escherichia coli (ATCC 25922)", "setting": "Escherichia coli; Escherichia coli (ATCC 25922)", "value": ">64", "unit": "µg/mL"}, {"measurement": "MIC Escherichia coli (GC 4559)", "setting": "Escherichia coli; Escherichia coli (GC 4559)", "value": ">64", "unit": "µg/mL"}, {"measurement": "MIC Escherichia coli (GC 4560)", "setting": "Escherichia coli; Escherichia coli (GC 4560)", "value": 4, "unit": "µg/mL"}]}]}
